Test results: ChEMBL document CHEMBL1145169, “Discovery of substituted maleimides as liver X receptor agonists and determination of a ligand-bound crystal structure” (J Med Chem, 2005)
Where “and” joins values, the source holds several entries; their conditions need not be identical. Equal entries are not always repeated.

Legend:
[1] = target: Glycogen synthase kinase-3 beta (Homo sapiens, UniProt P49841); assay: Inhibition of human GSK3-beta
[2] = target: T1, Oxysterols receptor LXR-alpha (Homo sapiens, UniProt Q13133); assay: Effective concentration for Steroid receptor coactivator-1 (SRC1) recruitment to human LXRalpha (Liver X receptor)
T1 sequence (Q13133 whole entry): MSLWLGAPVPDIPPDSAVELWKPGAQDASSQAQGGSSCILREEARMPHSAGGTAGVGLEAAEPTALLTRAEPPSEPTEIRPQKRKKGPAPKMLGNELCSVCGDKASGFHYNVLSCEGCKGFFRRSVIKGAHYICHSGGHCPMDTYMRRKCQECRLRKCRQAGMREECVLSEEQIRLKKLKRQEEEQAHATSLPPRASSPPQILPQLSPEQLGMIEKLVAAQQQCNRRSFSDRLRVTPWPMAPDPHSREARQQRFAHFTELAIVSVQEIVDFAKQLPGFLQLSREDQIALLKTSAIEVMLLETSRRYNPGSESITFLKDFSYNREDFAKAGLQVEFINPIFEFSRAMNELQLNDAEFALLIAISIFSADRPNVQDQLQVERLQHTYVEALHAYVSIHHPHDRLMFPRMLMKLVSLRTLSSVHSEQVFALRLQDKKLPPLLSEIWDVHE

[3] = target: T2, Oxysterols receptor LXR-beta (Homo sapiens, UniProt P55055); assay: Effective concentration for Steroid receptor coactivator-1 (SRC1) recruitment to human LXRbeta (Liver X receptor)
T2 sequence (P55055 whole entry): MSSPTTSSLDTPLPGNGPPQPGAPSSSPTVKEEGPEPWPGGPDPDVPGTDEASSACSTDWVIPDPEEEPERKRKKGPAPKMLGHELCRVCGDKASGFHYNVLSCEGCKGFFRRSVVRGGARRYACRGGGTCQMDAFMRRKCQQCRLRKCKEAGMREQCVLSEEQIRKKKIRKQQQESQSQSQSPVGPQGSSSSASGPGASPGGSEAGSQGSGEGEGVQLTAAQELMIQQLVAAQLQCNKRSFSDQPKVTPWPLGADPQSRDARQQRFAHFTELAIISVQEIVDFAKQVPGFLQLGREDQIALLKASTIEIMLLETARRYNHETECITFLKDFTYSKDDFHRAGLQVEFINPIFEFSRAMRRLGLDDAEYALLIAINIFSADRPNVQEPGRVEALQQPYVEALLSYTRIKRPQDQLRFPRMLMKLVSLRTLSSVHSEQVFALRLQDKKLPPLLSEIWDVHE

[4] = Effective concentration in human ATP binding cassette transporter A1 (ABCA1) transcriptional activation assay
[5] = species on record: Homo sapiens
Description: Relative efficacy in human ATP binding cassette transporter A1 (ABCA1) transcriptional activation assay compared to GW-3965

[6] = target: T3, Oxysterols receptor LXR-alpha (Homo sapiens) (UniProt Q13133)
T3 sequence (whole entry): T1 sequence (Q13133 whole entry)
Description: Relative efficacy for Steroid receptor coactivator-1 (SRC1) recruitment to human LXRalpha compared to GW-3965

[7] = target: T4, Oxysterols receptor LXR-beta (Homo sapiens) (UniProt P55055); assay: Relative efficacy in Steroid receptor coactivator-1 (SRC1) recruitment to human LXRbeta compared to GW-3965
T4 sequence (whole entry): T2 sequence (P55055 whole entry)

Glycogen synthase kinase-3 beta, sequence (P49841 whole entry): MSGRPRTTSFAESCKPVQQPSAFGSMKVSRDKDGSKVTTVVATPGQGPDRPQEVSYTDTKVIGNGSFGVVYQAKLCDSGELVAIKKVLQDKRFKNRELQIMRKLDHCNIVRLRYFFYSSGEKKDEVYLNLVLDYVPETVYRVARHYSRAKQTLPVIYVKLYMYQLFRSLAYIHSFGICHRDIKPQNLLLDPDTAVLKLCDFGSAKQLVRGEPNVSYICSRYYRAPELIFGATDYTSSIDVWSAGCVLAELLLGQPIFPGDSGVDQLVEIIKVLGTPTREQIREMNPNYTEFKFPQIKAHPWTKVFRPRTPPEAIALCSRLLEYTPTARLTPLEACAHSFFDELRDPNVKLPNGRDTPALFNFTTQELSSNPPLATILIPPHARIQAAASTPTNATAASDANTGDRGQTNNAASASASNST

| Compound | IC50 [1] [nM] | EC50 [2] [nM] | EC50 [3] [nM] | EC50 [4] [nM] | RE [5] | RE [6] | RE [7] |
| --- | --- | --- | --- | --- | --- | --- | --- |
| COc1ccc(NC2=C(c3ccccc3)C(=O)N(c3ccccc3)C2=O)cc1 | > 5000 | 275 | 260 | 1120 | 0.7 | 0.7 and 0.6 |  |
| O=C1C(Nc2ccccc2)=C(c2ccccc2)C(=O)N1Cc1ccccc1 | > 5000 | 100 | 70 | 1320 | 0.6 | 0.3 and 0.5 |  |
| O=C(O)Cc1cccc(OCCCN(Cc2cccc(C(F)(F)F)c2Cl)CC(c2ccccc2)c2ccccc2)c1 |  | 80 |  | 170 | 1 | 1 | 1 |
| O=S(=O)(c1ccccc1)N(CC(F)(F)F)c1ccc(C(O)(C(F)(F)F)C(F)(F)F)cc1 [T091317] |  |  |  | 70 | 1 | 1.1 and 0.8 |  |
| CCN1C(=O)C(Nc2ccccc2)=C(c2ccccc2)C1=O | > 5000 | 890 | 560 | 1790 | 0.5 | 0.7 |  |
| CN1C(=O)C(Nc2ccccc2)=C(c2ccccc2)C1=O | > 5000 | 1590 | 850 | 4650 | 0.3 | 0.5 and 0.6 |  |
| CCN1C(=O)C(Nc2ccc(Cl)cc2)=C(c2ccccc2)C1=O | > 5000 | 725 | 575 | 4550 | 0.4 | 0.5 and 0.6 |  |
| COc1ccc(NC2=C(c3ccccc3)C(=O)N(Cc3ccccc3)C2=O)cc1 | > 5000 | 50 | 40 | 80 | 0.9 | 0.9 |  |
| COc1ccc(NC2=C(c3ccccc3)C(=O)N(C)C2=O)cc1 | > 2000 | 575 | 300 | 840 | 1.4 | 0.9 |  |
| O=C1C(Nc2ccc(Cl)cc2)=C(c2ccccc2)C(=O)N1Cc1ccccc1 | > 5000 | 130 | 110 | 1420 | 0.4 | 0.3 and 0.4 |  |
| CCN1C(=O)C(Nc2ccc(OC)cc2)=C(c2ccccc2)C1=O | > 5000 | 300 | 200 | 10200 | 0.4 | 1.1 and 0.9 |  |
